Results as given in ChEMBL document CHEMBL1201862, “PubChem BioAssay data set” (2004).
Calls of active or inactive are those of the source.

What was measured:
[1] = molecular target: Ephrin type-A receptor 4 (Mus musculus, UniProt Q03137); test: EphA4 ligand-binding antagonists – biochemical, colorimetric, mouse EphA4, primary screen (AID 689); format: functional
[2] = tested on: INS1; test: INS-1E survival protection against cytokine death – cell-based, luminescence, retest, dose response (AID 449756); format: functional; conditions: Rattus norvegicus;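 further: cell death triggered by IL-1 beta plus TNF-alpha plus IFN-gamma mixture; protective hits raise ATP signal compared with cytokine alone wells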
[3] = molecular target: T1, Neuropeptide Y receptor type 2 (Homo sapiens, UniProt P49146); test: IC50 for human NPY-Y2 blockade – cell-based, counter-screen for NPY-Y1 antagonist project, dose response (AID 1278); format: functional
T1 sequence (P49146 whole entry): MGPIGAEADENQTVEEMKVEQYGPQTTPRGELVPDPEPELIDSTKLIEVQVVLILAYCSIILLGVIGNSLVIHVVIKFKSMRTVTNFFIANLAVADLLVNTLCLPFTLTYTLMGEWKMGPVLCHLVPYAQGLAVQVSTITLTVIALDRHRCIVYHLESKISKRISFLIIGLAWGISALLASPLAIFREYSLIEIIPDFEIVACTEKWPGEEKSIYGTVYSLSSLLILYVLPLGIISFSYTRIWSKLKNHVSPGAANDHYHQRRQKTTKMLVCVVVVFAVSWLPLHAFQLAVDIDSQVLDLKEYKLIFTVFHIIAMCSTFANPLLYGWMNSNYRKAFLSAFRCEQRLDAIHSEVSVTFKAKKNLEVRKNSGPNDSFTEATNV

[4] = molecular target: T2, Neuropeptide Y receptor type 1 (Homo sapiens, UniProt P25929); test: IC50 of human NPY-Y1 blockers – cell-based, dose response (AID 1277); format: functional
T2 sequence (P25929 whole entry): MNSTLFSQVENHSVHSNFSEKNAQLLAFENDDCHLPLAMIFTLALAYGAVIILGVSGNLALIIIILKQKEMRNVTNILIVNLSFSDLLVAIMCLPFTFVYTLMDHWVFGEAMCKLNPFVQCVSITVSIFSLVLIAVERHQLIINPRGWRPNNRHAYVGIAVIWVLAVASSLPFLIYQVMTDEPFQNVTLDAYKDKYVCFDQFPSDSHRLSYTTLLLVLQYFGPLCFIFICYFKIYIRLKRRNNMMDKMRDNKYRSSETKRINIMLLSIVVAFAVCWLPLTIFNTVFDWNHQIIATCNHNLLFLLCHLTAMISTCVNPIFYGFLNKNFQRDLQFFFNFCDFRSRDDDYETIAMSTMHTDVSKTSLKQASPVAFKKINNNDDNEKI

[5] = tested on: Vero; test: Vero cell viability after compound exposure – synthesized analogs, set II, cytotoxicity control for West Nile virus antiviral project, SAR follow-up (AID 2402); format: functional; conditions: Chlorocebus sabaeus
[6] = molecular target: T3, Heat shock factor protein 1 (Mus musculus, UniProt P38532); test: decrease of HSF1-responsive luciferase luminescence – cell-based, NIH3T3, dose retest, confirmation (AID 2382); format: functional;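 further: NIH3T3 fibroblasts with HSF1-driven luciferase reporter stressed by proteasome inhibitor MG132; luminescence from HSF1-driven luciferase expression after 8 hours of MG132 stress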
T3 sequence (P38532 whole entry): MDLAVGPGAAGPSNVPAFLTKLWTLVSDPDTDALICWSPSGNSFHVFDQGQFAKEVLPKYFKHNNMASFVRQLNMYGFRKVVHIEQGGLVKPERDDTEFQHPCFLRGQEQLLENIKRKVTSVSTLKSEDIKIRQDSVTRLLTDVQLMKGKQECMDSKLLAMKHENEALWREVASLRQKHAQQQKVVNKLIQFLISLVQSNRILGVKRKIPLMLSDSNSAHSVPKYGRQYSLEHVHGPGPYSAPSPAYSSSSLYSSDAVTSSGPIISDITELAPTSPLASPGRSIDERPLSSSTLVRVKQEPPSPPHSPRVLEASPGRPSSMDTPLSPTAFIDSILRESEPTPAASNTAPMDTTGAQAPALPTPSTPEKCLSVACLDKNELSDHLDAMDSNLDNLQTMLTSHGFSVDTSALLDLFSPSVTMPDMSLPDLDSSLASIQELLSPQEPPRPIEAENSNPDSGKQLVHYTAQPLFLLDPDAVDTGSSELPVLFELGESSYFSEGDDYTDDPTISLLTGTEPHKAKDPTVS

[7] = molecular target: T4, Estrogen receptor beta (Homo sapiens, UniProt Q92731);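 further: recombinant ER-beta bound to coactivator SRC1 peptide in presence of estradiol agonist; inhibitors block coactivator peptide binding and lower the FRET signal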
[8] = molecular target: T5, Aryl hydrocarbon receptor (Homo sapiens, UniProt P35869); test: Luminescence-based cell-based high throughput dose response assay for activators of the Aryl Hydrocarbon Receptor (AHR). [Related pubchem assays: 2796 (Primary screen (AHR activators in singlicate)), 2845 (Confirmation screen (AHR activators in triplicate)), 434939 (Counterscreen (PXR activators in triplicate)), 2804 (Summary (AHR activators))]; format: ADME
T5 sequence (P35869 whole entry): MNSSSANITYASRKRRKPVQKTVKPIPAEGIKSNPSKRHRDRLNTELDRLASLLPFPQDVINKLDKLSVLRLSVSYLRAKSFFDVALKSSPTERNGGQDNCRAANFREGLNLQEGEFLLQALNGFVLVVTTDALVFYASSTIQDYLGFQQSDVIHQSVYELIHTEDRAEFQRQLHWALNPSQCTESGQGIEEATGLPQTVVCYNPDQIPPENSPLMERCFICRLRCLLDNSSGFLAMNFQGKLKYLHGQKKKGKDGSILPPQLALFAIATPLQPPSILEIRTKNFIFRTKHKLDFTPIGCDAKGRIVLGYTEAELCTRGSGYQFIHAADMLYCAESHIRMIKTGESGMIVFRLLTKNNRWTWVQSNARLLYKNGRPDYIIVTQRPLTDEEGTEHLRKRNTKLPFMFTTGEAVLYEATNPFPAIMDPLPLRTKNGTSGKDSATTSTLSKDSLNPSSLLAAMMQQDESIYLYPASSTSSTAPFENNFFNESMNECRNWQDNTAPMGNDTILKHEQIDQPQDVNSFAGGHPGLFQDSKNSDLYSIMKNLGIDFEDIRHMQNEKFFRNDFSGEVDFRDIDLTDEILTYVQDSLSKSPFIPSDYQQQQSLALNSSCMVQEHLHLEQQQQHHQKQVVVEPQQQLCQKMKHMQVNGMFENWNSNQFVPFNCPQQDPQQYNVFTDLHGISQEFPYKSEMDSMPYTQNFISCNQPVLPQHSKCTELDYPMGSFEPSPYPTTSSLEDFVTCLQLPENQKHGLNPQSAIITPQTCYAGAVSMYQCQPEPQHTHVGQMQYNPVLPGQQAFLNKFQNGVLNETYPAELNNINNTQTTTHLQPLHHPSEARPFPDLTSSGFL

[9] = molecular target: T6, Fatty acid synthase (Homo sapiens, UniProt P49327); test: inhibition of human FAS-TE enzyme activity – biochemical, kinetic fluorescence intensity, dose response (AID 624326); format: functional;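 further: rate of fluorescence rise from hydrolysis of a fluorogenic O-methyl fluorescein ester substrate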
[10] = molecular target: T6, Fatty acid synthase; test: inhibition of human FAS-TE enzyme activity – biochemical, endpoint fluorescence intensity, uHTS hits, dose response (AID 624327); format: functional;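 further: fluorescence from hydrolysis of an O-methyl fluorescein acyl ester substrate by the enzyme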
[11] = molecular target: T4, Estrogen receptor beta; test: blockers of SRC-3 recruitment to ERβ – biochemical, ELISA, streptavidin-HRP readout, orthogonal assay, confirmation (AID 1060)
[12] = molecular target: T7, Sentrin-specific protease 8 (Homo sapiens, UniProt Q96LD8); format: functional
T7 sequence (Q96LD8 whole entry): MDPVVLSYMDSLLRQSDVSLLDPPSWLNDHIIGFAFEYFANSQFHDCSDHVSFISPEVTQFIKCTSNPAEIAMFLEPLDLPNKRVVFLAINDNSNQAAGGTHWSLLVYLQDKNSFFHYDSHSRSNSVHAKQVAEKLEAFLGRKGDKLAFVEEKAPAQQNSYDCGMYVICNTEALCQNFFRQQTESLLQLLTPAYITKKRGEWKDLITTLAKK

[13] = molecular target: T7, Sentrin-specific protease 8; format: functional; remark: listed apart in the source
[14] = molecular target: T8, Replicative DNA helicase DnaB (Mycobacterium tuberculosis, UniProt P9WMR3); test: DnaB intein splicing inhibitors, dose response, biochemical, cell-free fluorescence (AID 449749); format: functional
T8 sequence (P9WMR3 whole entry): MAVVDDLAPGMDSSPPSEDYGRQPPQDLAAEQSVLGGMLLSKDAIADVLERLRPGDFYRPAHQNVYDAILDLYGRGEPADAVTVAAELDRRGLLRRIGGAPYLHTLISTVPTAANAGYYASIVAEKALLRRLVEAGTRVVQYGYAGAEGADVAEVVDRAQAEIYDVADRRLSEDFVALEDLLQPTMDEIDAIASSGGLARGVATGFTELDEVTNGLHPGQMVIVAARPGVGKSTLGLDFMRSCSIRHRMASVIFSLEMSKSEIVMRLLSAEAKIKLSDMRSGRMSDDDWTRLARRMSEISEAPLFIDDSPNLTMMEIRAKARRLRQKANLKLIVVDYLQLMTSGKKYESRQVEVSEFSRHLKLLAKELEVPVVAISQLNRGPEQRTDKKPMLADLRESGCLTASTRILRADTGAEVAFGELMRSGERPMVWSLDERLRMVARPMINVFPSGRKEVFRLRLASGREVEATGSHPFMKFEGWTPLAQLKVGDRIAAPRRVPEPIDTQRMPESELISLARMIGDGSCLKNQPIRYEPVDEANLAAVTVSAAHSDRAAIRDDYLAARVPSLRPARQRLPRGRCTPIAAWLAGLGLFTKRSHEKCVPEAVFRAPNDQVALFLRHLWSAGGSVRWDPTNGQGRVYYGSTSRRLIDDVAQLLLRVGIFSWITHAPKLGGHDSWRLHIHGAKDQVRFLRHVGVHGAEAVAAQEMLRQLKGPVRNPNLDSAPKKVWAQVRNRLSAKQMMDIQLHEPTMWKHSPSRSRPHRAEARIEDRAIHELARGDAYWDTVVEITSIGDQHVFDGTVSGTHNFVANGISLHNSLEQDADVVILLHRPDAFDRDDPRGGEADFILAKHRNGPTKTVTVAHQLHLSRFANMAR

[15] = molecular target: T9, Protein RecA (Mycobacterium tuberculosis, UniProt P9WHJ3); test: Fluorescence Cell-Free Homogeneous Dose Retest to Identify Inhibitors of RecA-Intein Splicing Activity. [Related pubchem assays (depositor defined):AID2097, AID2223, AID489010, AID492950]; format: functional
T9 sequence (P9WHJ3 whole entry): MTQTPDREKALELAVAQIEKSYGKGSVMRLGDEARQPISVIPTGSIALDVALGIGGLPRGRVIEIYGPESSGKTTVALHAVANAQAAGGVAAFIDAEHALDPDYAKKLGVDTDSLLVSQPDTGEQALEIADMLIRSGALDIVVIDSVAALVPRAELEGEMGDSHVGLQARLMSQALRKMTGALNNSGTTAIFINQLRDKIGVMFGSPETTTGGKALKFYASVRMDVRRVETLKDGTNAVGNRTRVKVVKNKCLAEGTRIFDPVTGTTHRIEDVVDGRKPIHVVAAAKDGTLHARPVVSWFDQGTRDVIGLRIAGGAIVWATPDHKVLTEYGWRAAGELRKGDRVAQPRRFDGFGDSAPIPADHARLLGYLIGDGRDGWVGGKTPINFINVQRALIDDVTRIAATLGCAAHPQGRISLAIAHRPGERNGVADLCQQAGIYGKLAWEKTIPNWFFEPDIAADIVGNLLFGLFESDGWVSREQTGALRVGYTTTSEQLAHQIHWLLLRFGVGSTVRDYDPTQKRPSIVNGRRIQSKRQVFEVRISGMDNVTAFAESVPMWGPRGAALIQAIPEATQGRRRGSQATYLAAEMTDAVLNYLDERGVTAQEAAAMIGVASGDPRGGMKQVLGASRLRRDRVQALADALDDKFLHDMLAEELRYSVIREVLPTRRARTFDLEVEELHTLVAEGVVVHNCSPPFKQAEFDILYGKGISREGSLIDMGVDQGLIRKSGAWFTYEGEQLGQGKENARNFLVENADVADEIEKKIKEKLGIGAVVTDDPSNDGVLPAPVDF

[16] = Luminescence Cell-Based Dose Response HTS to Identify Inhibitors of 5'UTR Stem-Loop Driven Prion Protein mRNA Translation in H4 Neuroglioblastoma Cells. [Related pubchem assays: 1827 (Project Summary), 1813 (Primary HTS)]; format: functional
[17] = luciferase reporter signal suppression in cells – H4 neuroglioma cells, luminescence, dose response (AID 1990); format: functional, cell-based
[18] = alpha-synuclein stem-loop luciferase translation blockers – H4 neuroglioma cells, luminescence, confirmation (AID 1988); format: functional, cell-based
[19] = molecular target: Mitogen-activated protein kinase 10 (Homo sapiens, UniProt P53779); test: Dose response biochemical screening assay for inhibitors of c-Jun N-Terminal Kinase 3 (JNK3). [Related pubchem assays: 746 ]
Chain of Mitogen-activated protein kinase 10 (P53779 whole entry): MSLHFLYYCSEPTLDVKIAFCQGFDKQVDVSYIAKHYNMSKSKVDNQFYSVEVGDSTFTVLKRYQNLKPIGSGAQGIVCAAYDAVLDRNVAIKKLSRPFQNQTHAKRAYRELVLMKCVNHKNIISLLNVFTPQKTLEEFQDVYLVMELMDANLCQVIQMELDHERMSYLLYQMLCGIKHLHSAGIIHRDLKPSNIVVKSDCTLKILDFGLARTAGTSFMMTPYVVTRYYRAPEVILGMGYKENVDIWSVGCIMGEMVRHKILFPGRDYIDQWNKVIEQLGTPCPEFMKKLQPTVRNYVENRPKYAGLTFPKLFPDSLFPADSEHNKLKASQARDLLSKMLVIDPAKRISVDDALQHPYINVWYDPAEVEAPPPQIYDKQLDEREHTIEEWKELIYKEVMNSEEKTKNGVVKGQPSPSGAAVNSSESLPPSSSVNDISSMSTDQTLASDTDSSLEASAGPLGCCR

T4 sequence (Q92731 whole entry): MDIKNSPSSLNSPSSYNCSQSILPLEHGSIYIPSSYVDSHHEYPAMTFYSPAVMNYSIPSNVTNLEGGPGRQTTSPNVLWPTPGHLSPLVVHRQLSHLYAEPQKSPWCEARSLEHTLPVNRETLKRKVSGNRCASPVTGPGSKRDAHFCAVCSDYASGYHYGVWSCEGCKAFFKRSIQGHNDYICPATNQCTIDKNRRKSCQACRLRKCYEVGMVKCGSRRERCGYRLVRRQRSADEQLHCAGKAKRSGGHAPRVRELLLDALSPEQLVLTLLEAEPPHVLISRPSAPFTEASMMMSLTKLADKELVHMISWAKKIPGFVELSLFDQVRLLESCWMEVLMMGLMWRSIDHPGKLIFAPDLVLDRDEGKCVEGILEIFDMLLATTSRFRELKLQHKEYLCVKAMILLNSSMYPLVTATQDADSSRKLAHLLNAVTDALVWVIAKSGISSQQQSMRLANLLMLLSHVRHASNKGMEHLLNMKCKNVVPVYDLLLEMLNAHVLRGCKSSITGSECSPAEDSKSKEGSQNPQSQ
Chain of Ephrin type-A receptor 4 (Q03137 whole entry): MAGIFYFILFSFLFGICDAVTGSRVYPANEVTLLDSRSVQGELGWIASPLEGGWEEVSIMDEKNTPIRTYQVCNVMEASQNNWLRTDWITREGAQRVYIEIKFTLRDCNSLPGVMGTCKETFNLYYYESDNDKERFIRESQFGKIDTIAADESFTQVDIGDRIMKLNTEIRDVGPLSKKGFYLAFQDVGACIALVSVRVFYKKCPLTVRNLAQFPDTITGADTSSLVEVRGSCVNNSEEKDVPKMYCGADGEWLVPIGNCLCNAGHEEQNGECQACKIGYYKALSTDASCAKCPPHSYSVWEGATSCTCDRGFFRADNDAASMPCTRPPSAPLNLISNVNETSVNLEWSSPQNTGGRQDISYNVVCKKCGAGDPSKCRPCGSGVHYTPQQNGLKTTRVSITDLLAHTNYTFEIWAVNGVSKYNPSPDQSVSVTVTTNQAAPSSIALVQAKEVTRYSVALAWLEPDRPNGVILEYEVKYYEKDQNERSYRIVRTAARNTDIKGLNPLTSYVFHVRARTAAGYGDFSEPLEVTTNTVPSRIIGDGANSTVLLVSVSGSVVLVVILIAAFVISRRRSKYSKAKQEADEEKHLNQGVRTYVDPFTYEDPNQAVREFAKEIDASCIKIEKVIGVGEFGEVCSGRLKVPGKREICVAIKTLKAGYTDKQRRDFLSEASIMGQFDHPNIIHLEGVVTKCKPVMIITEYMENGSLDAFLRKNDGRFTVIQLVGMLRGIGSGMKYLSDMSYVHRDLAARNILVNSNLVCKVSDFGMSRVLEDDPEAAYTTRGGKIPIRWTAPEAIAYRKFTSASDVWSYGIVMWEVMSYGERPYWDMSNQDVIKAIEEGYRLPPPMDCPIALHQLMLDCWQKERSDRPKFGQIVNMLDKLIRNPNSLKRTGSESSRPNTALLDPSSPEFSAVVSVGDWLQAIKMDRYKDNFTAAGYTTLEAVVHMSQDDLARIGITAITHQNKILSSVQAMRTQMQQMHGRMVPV
T6 sequence (P49327 whole entry): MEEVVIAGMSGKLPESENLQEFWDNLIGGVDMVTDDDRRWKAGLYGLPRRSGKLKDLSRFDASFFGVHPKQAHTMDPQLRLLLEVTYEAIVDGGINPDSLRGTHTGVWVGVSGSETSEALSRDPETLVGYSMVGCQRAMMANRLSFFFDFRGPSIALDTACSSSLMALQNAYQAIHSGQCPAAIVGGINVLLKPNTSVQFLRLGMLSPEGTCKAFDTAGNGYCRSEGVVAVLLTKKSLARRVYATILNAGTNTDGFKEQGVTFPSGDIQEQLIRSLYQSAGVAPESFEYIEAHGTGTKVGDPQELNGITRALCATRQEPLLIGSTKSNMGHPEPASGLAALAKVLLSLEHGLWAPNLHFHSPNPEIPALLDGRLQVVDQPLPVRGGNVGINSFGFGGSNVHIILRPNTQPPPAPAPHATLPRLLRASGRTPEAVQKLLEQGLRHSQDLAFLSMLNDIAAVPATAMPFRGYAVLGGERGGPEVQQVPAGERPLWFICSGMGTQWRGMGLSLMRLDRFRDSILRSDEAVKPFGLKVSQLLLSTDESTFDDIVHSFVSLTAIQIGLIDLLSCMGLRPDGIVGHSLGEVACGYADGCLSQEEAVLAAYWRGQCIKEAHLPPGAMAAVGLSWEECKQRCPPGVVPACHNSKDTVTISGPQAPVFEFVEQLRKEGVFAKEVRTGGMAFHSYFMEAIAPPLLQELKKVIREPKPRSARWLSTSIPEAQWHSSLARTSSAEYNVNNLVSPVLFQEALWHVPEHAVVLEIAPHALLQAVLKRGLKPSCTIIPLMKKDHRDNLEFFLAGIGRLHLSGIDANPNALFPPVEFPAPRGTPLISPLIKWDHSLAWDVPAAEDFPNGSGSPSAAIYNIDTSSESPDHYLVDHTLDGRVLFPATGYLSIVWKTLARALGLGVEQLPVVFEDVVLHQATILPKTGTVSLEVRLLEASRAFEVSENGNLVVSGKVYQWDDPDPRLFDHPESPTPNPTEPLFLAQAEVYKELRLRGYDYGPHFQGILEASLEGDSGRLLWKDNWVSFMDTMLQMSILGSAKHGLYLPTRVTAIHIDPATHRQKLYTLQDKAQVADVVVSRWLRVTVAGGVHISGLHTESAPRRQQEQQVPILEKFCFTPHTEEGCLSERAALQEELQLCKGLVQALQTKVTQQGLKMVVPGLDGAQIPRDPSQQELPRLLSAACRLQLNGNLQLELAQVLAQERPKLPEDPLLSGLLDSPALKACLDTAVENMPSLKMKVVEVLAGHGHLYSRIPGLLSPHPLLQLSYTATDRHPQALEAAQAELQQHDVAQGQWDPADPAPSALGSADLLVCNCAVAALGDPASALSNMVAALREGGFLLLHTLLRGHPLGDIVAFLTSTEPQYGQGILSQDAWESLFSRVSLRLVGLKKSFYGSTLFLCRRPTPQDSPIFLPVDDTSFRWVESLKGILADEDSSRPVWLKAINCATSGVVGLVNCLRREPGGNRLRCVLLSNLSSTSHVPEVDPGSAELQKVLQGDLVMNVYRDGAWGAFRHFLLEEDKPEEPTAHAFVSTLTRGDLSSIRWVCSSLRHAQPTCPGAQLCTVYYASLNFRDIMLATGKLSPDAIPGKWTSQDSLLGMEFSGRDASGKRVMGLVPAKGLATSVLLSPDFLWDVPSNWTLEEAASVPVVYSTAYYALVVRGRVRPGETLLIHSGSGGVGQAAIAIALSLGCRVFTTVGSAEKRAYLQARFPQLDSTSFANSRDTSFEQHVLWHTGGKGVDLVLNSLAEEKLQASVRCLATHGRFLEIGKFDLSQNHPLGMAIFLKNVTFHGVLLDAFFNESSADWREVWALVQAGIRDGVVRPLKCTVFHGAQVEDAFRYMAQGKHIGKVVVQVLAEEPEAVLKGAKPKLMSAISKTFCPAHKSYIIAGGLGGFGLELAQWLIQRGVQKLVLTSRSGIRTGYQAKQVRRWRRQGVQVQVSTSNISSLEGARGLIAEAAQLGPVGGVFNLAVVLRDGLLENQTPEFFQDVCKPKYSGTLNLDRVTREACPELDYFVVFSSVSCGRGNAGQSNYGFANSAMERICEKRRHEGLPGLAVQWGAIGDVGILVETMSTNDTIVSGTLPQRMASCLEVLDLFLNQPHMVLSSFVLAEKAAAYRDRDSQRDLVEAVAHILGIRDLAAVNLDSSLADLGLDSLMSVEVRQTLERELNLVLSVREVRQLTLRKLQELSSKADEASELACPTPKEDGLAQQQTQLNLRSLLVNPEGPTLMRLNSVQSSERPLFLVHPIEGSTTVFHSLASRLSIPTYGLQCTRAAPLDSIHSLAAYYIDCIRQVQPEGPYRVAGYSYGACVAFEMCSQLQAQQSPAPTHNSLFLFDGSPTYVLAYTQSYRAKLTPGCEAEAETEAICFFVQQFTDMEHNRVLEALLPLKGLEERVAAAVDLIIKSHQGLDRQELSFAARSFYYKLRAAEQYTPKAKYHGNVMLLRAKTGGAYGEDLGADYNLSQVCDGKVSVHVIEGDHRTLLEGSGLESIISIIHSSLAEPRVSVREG

## O=C1/C(=C\c2nc3ccccc3[nH]2)SC(=S)N1c1ccc(F)cc1
[1]
  IC50: > 100 µM (not active)

## CC(=O)OC1COC(OC2C(O)C(C)OC(OC3C(OC4CCC5(C)C(CCC6(C)C5CC=C5C7CC(C)(C)CCC7(C(=O)O)CCC56C)C4(C)CO)OCC(O)C3O)C2O)C(O)C1OC(C)=O (stereo not given)
[2]
  AC50: 5.67 µM (active)
[3]
  IC50: > 35 µM (not active)
[4]
  IC50: > 35 µM (not active)

## OC1c2c(F)cccc2N=C2CCCCN21 (stereo not given)
[5]
  CC50: > 200 µM (active)

## COc1ccc(OC)c(NC(=O)CSc2nc3ccccc3cc2Cc2ccccc2)c1
[1]
  IC50: > 100 µM (not active)
[6]
  EC50: > 195 µM (not active)

## O=C(CCCn1c(=S)[nH]c2cc3c(cc2c1=O)OCO3)N1CCc2ccccc2C1
[7]
  IC50: > 50 µM (not active)

## CCOc1ccc(NC(=O)c2cc3ccccc3cc2OC)cc1
[8]
  EC50: 2.17 µM (active)

## O=C(c1ccco1)c1cn(Cc2ccc(Cl)cc2)c2ccccc12
[3]
  IC50: 9.22 µM (active)
[4]
  IC50: 6.69 µM (active)

## COC(=O)c1cc(C(=O)Nc2nnc(C3CC3)s2)cc([N+](=O)[O-])c1
[9]
  IC50: 13.8 µM (active)
[10]
  IC50: 9.7 µM (active)
[8]
  EC50: 3.02 µM (active)

## Cn1nc(C(=O)Nc2sccc2C(N)=O)ccc1=O
[11]
  IC50: > 50 µM (not active)

## CC1=CC2(O)OCCN(CCO)C2=CC1=O (stereo not given)
[12]
  IC50: 22.3 µM (active)
[13]
  IC50: > 100 µM (inactive)
[11]
  IC50: < 0.023 µM (not active)
[14]
  AC50: 16.9 µM (active)
[15]
  EC50: 10.2 µM (active)

## CC1=C(C(=O)OC2CCCCCCC2)C(c2ccc(O)cc2)NC(=O)N1 (stereo not given)
[16]
  EC50: > 120 µM (not active)
[17]
  EC50: 21.1 µM (active)
[18]
  EC50: 23.9 µM (active)
[19]
  IC50: 41.9 µM (not active)

## Cc1cc(=O)[nH]c(SCC(=O)Nc2nc3c(s2)CCCC3)n1
[7]
  IC50: > 50 µM (not active)
